Here are results for four compounds from PMC7604311, “Caprine Bactenecins as Promising Tools for Developing New Antimicrobial and Antitumor Drugs” (Frontiers in Cellular and Infection Microbiology, 2020).

In brackets after ≈: the same amount, converted by molar mass. Bridge positions count the residues as written; N and C are the ends. Ends that are not written are not given here. Peptide text beside a SMILES is read from it.

Data set [1] deals with Gram-positive and Gram-negative bacteria. The data set can be described thus: Geometric mean of MICs (GMIC) over tested strains. The class given is cell-based. Conditions: geometric mean of MICs against all tested bacteria. As for the experimental part: (§1) The minimal inhibitory concentrations (MIC) of peptides were determined using microdilution assay in Müller–Hinton (MH) broth in general accordance with the guidelines of the European Committee for Antimicrobial Susceptibility Testing. Test plates were additionally pretreated with 0.1% bovine serum albumin (BSA) in distilled H2O (incubated for 1 h at 37°C) to reduce possible non-specific binding of peptides to the plastic surface of the wells, as proposed for AMP activity measuring ([Tossi et al., 1997]; [Wiegand et al., 2008]). Two-fold serial dilutions of peptides starting with 2 × stock concentration were prepared in sterile 10 mM sodium phosphate (Na-P) buffer, pH 7.4, with 0.1% BSA. Thus, final solutions contained 50% of Na-P diluted peptide and 50% of MH broth with bacteria. Bacteria for testing were grown overnight, then transferred into a fresh portion of 2.1% MH medium and additionally incubated for 2–3 h to obtain bacterial culture in its mid-logarithmic growth phase, which was diluted down to the final concentration of 1 × 10^6 CFU/ml. Concentration of bacteria in growth medium was calculated based on its absorbance at 620 nm.
After 20 h of incubation of AMPs with bacteria MICs were determined as lowest concentrations of AMPs completely preventing the visible growth of bacteria. […] Final MIC values were calculated as medians based on the results of 3–5 independent experiments.

Another data set can be described thus: MTT test. Conditions: human, serum-free RPMI-1640, overnight incubation, mean ± SD of three independent tests, read-out: IC50 of cytotoxic action toward human PBMC. Type of data set: cell-based. How it is done:
Cytotoxic activity of peptides toward various types of eukaryotic cells was assessed using the standard MTT [3-(4,5-Dimethylthiazol-2-yl)-2,5-diphenyltetrazolium bromide] test ([Mosmann, 1983]). Human peripheral blood mononuclear cells (PBMC) were isolated from the peripheral blood of healthy donors. Whole heparinized blood diluted 3-fold with sterile PBS was carefully layered upon the 5 ml of the sterile Ficoll-400 (Pharmacia, Sweden) with a density of 1.077 in a sterile 50 ml conical tube and then centrifuged at 600 g and 4°C for 40 min. The mononuclear “ring” remaining above the Ficoll was collected using a transfer pipette and placed in another tube. Cells were washed twice with sterile PBS, resuspended in RPMI-1640 culture medium and immediately used for the test. Tumor cell lines were purchased from Biolot (Saint Petersburg, Russia) and cultured at 37°C and 5% CO2 in RPMI-1640 medium (Biolot, Saint Petersburg, Russia) supplemented with 10% fetal bovine serum, glutamine, and penicillin-streptomycin combination. For the experiments, cells were washed from the medium they were growing in and resuspended in serum- and antibiotic-free RPMI-1640. Cells were added at not less than 2 × 10^4 per well in sterile flat bottom 96-well microplates containing serial dilutions of tested peptides in RPMI-1640. For the positive control (100% viable cells), RPMI-1640 medium was used instead of the peptide solution, whereas for the negative control (0% viable cells) medium replaced both peptide and cells. Test plates were incubated at 37°C and 5% CO2 overnight, after which MTT metabolic marker in PBS (5 mg/ml) was introduced into each well. After an additional 4 h incubation, the reaction was stopped by adding isopropanol supplemented with 0.04 M HCl, in which the formazan crystals (formed as a result of MTT reduction in presence of metabolically active cells) were dissolved, and OD at 540 nm was measured. Background absorbance at 690 nm was subtracted from the results to countervail any unspecific OD fluctuations. The % of surviving cells was found as:
(2) Survival(%)=(ODsample−OD0% viable)/(OD100% viable−OD0% viable)×100%,
where ODsample, OD0% viable, and OD100% viable are respectively values of the OD at 540 nm minus the OD at 690 nm for the test sample and negative or positive controls. IC50 toxicity values were determined by nonlinear regression analysis of the dose response curves using Sigma Plot 11 (Systat Software Inc., USA). The experiments were repeated three times, with 3 parallels of samples and 4–6 parallels of controls each time.

The next data set deals with E. coli ML-35p. Nature of the data set: Broth microdilution assay (MIC). The class given is cell-based, Escherichia coli. Conditions: 50% MH broth/50% 10 mM Na-P buffer pH 7.4 with 0.1% BSA, 1×10^6 CFU/ml, 20 h, median of 3–6 independent experiments in triplicate. As for the experimental part: as §1
After 20 h of incubation of AMPs with bacteria MICs were determined as lowest concentrations of AMPs completely preventing the visible growth of bacteria. Tests were performed in 60-well Terasaki microplates (10 µl end volume, V-shaped bottom; Sarstedt, Germany); dilutions in each test were made in triplicate. Final MIC values were calculated as medians based on the results of 3–5 independent experiments.

Data set [2] in a line: Standard acute toxicity test. Conditions: at the utilized doses (1 or 100 μg per animal); data not shown. The class given is in vivo.
The next data set has as its system A. baumannii 7226/16. The class given is cell-based, Acinetobacter baumannii. Conditions: 7226/16, 24 h. How it is done: Quantification of the biofilms forming in the presence of various concentrations of tested AMPs was performed using the crystal violet assay according to general guidelines ([Merritt et al., 2006]). Tests were performed in polystyrene 96-well plates with U-shaped bottom. Peptides were serially diluted in a bacterial growth medium (MH for A. baumannii or TSB for P. aeruguinosa) in a volume of 50 μl per well. Overnight cultures of tested bacteria in a stationary phase of growth were 50 times diluted and introduced into the experimental wells at the same volume of 50 μl. Samples were incubated for 24 h at 37°C. The content of the wells was then shacked out, the plates were gently washed from unattached planktonic bacteria in still water (poured into a large enough vessel); bacterial cells and matrix components adhered to the walls of the wells were stained with a 0.1% aqueous solution of crystal violet dye: 125 μl of dye solution was put into each well and incubated at room temperature for 10 min. […] One hundred and twenty five microliters of crystal violet extract from each well were transferred into a flat-bottomed microtiter plate, and the optical density was measured at a wavelength of 560–595 nm (depending on the maximum of absorption in a particular experiment). […] Presented results are medians calculated based on 3 independent experiments.

Another data set deals with P. aeruginosa MDR 522/17. Type of data set: cell-based, Pseudomonas aeruginosa. Conditions: MDR 522/17, 24 h. How it is done:
Quantification of the biofilms forming in the presence of various concentrations of tested AMPs was performed using the crystal violet assay according to general guidelines ([Merritt et al., 2006]). Tests were performed in polystyrene 96-well plates with U-shaped bottom. Peptides were serially diluted in a bacterial growth medium (MH for A. baumannii or TSB for P. aeruguinosa) in a volume of 50 μl per well. Overnight cultures of tested bacteria in a stationary phase of growth were 50 times diluted and introduced into the experimental wells at the same volume of 50 μl. Samples were incubated for 24 h at 37°C. The content of the wells was then shacked out, the plates were gently washed from unattached planktonic bacteria in still water (poured into a large enough vessel); bacterial cells and matrix components adhered to the walls of the wells were stained with a 0.1% aqueous solution of crystal violet dye: 125 μl of dye solution was put into each well and incubated at room temperature for 10 min. After staining dye solution was removed, the plates were washed with clean water and allowed to air-dry. Finally, the bound dye was redissolved by adding 200 μl of 30% acetic acid into each well, incubating it for 15 min at room temperature, and then thoroughly mixing the content of the wells by pipetting. One hundred and twenty five microliters of crystal violet extract from each well were transferred into a flat-bottomed microtiter plate, and the optical density was measured at a wavelength of 560–595 nm (depending on the maximum of absorption in a particular experiment). Experimental samples were made in quadruplicates, and there were 8–9 repeats of control samples without peptides in each test. Presented results are medians calculated based on 3 independent experiments.

A further data set relates to human erythrocytes. Conditions: cited from earlier work. The text has this:
The majority of AMPs are membranolytic, and even though eukaryotic cell membranes are less anionic than those of bacterial cells, have a lower membrane potential and are protected by the presence of cholesterol ([Matsuzaki, 2009]), they are considered to be a secondary target, affecting the selectivity of AMPs. […] The hemolysis assay is widely utilized for the express analysis of the toxic properties of AMPs, relating to their membranolytic activity. It was previously shown that na ...

The test system of data set [3] is K562 cells. The data set can be described thus: Annexin V-Cy3 apoptosis detection assay. The class given is cell-based, human. Conditions: K562, 2 h incubation with peptide, Annexin-Cy3.18/6-CFDA staining. The source says:
Annexin V-Cy3 Apoptosis Detection kit (Sigma, USA) was used to distinguish between cells dying via necrosis and cells entering apoptosis. This kit includes a combination of red and green fluorescent dyes; 6-Carboxyfluorescein diacetate (6-CFDA) is hydrolyzed by esterases inside viable (still functional) cells, producing the green fluorescent compound 6-carboxyfluorescein. Annexin-Cy3.18, giving red fluorescence, binds to phosphatidylserine which only becomes exposed in the outer leaflet of the plasma membrane for cells entering the apoptotic process, or if the plasma membrane is damaged during necrosis. Thus, living cells are only stained green, necrotic ones are only stained red, while cells in the early stages of apoptosis are stained by both dyes.
To assess the effects of the peptides, cells were incubated in their presence for 2 h under the same conditions as described for trypan blue assay. […] After 10 min incubation at room temperature cells were washed from excess dyes with 1 × binding buffer and analyzed under the luminescent microscope (Leica DM2500, Leica Microsystems, Germany). […] The resulting percentage of viable, apoptotic, and necrotic cells are shown as mean with SD, calculated based on three independent experiments.

The test system of data set [4] is K562 cells. The data set can be described thus: Trypan blue dye exclusion assay. Type of data set: cell-based, human. Conditions: K562, 1×10^6 cells/ml, serum-free RPMI-1640, first 3 h of incubation. As for the experimental part:
Living cells exclude the dye, so that their cytoplasm remains clear. When damaged cells take up the dye, it binds to intracellular proteins and renders them a blue color. Cells suspended to a concentration of 1 × 10^6 per ml in RPMI-1640 medium (serum-free) were incubated with various concentrations of the peptides of interest for various periods of time at 37°C and 5% CO2. Then they were stained with 0.2% trypan blue dye solution in PBS for 3 min at room temperature, and dead and living cells were counted using a hemocytometer. Percentage of viable cells was calculated as follows:
(3) Viable cells (%) =total number of viable cells/total number of cells×100%,
Experiments were repeated three times before plotting time-killing curves. For each time point, data are presented as mean with standard deviation (SD).

With `CC[C@H](C)[C@H](NC(=O)[C@H](CCCNC(=N)N)NC(=O)[C@@H](NC(=O)[C@H](Cc1ccccc1)NC(=O)[C@@H]1CCCN1C(=O)[C@@H]1CCCN1C(=O)[C@@H]1CCCN1C(=O)[C@H](Cc1c[nH]cn1)NC(=O)[C@@H](NC(=O)[C@H](CCCNC(=N)N)NC(=O)[C@H](CCCNC(=N)N)NC(=O)[C@H](Cc1ccccc1)NC(=O)[C@@H]1CCCN1C(=O)[C@H](CC(C)C)NC(=O)[C@H](CCCNC(=N)N)NC(=O)[C@H](Cc1ccccc1)NC(=O)[C@@H](N)CCCNC(=N)N)[C@@H](C)CC)C(C)C)C(=O)N[C@@H](Cc1c[nH]cn1)C(=O)N1CCC[C@H]1C(=O)N1CCC[C@H]1C(=O)N1CCC[C@H]1C(=O)N[C@@H](Cc1ccccc1)C(=O)N[C@@H](Cc1ccc(O)cc1)C(=O)N[C@@H](CCCNC(=N)N)C(=O)N[C@@H](CCCNC(=N)N)C(=O)N[C@@H](Cc1ccccc1)C(=O)N[C@@H](CC(C)C)C(=O)O` [ChBac3.4-1-COOH (rec)] (H-RFRLPFRRIHPPPFVRIHPPPFYRRFL-OH; N-terminus assumed), in data set [1], the GMIC total came out at 5.0 µM. For the same compound, the IC50 in the data set “MTT test” amounted to 40.8 ± 9.1 µM. In the data set on E. coli ML-35p, this compound had an MIC of 4 µM (≈ 14.1 µg/mL).
For the compound “RFRLPFRRIHPPPFVRIHPPPFYRRFL [ChBac3.4-1-COOH]”, the “Toxic action in acute toxicity test” value in data set [2] was “no visible signs of toxic action”. Also, the MIC in the data set on E. coli ML-35p was in the range of 2 to 4 µM.
As for “RFRLPFRRPPIRIHPPPFYPPFRRFL-NH2 [ChBac3.4-NH2]”, the Biofilm inhibition with A. baumannii 7226/16 is given as 56 ± 12%; with P. aeruginosa MDR 522/17, 63 ± 9%. Besides, in the data set on human erythrocytes, the “Hemolytic activity” value is given as “not hemolytic”. For the same compound, the IC50 in “MTT test” came to 18.6 ± 0.8 µM. Also, the MIC in the data set on E. coli ML-35p amounted to 2 µM.
Regarding “protegrin 1 (RGGRLCYCRRRFCVCVGR-NH2; disulfide 8-13, 6-15; ends not checked; UniProt P32194 131-148, looked up) [PG-1]”, in the data set on K562 cells [3], the “Apoptosis versus necrosis” value is listed as “prominent, dose-dependent prevalence of necrosis over apoptosis”. The “Dynamics of cytocidal action” value with K562 cells [4] was “swift and pronounced effect, observable in the first 30 min of exposure”.
